From patent US20220395555A1, “Derivatives of antibiotics” (priority 2020, published 2022)

Test system: resistant strains of fungi (Candida spp., Microsporium, Trich. mentagrophytes, Aspergillus niger)
Assay: Antifungal activity on the resistant strains
Type: cell-based
Conditions: resistant fungal strains

Row | Compound | antifungal activity, in words
1 | C[C@@H]1[C@H](O)[C@@H](C)/C=C/C=C/C=C/C=C/C=C/C=C/C=C/[C@H](O[C@@H]2O[C@H](C)[C@@H](O)[C@H](N)[C@@H]2O)C[C@@H]2O[C@](O)(C[C@@H](O)C[C@@H](O)[C@H](O)CC[C@@H](O)C[C@@H](O)CC(=O)O[C@H]1C)C[C@H](O)[C@H]2C(=O)O [amphotericin] | did not exert antifungal activity
2 | C[C@@H]1[C@H](O)[C@@H](C)/C=C/C=C/CC/C=C/C=C/C=C/C=C/C(O[C@H]2O[C@H](C)[C@@H](O)[C@H](N)[C@@H]2O)CC2O[C@](O)(CC(O)C(O)CCC(O)CC(O)CC(O)CC(=O)O[C@H]1C)CC(O)C2C(=O)O (some centres unmarked) [nystatin] | did not exert antifungal activity
